Reference: patent US9675614B2, “PRMT5 inhibitors and uses thereof” (Epizyme, Inc., priority 2012, dated 2017)

Target: PRMT5/MEP50 (Homo sapiens (Human), UniProt O14744)
Assay: PRMT5 Biochemical Assay (PRMT5/MEP50 enzyme assay on peptide substrate, 3H-SAM Flashplate)
Details: PRMT5/MEP50 biochemical assay; read-out: Biochemical IC50
Excerpt: S-adenosylmethionine (SAM), S-adenosylhomocysteine (SAH), bicine, KCl, Tween20, dimethylsulfoxide (DMSO), bovine skin gelatin (BSG), and Tris(2-carboxyethyl)phosphine hydrochloride solution (TCEP) were purchased from Sigma-Aldrich at the highest level of purity possible. ^3H-SAM was purchase from American Radiolabeled Chemicals with a specific activity of 80 Ci/mmol. 384-well streptavidin Flashplates were purchased from PerkinElmer.
Peptide representative of human histone H4 residues 1-15 was synthesized with a C-terminal linker-affinity tag motif and a C-terminal amide cap by 21st Century Biochemicals. […] The sequence was Ac-[…][K-Biot]amide (SEQ ID NO.:3).
Full-length human MEP50 (NM_024102) clone was amplified from a human testis cDNA library incorporating a 5′ sequence encoding a 6-histidine tag (MHHHHHH) (SEQ ID NO.:5) fused directly to Arg 2 of MEP50. The amplified genes were subcloned into pENTR/D/TEV (Life Technologies) and subsequently transferred by Gateway™ attL×attR recombination to pDEST8 baculvirus expression vector (Life Technologies).
Recombinant baculovirus and Baculovirus-Infected Insect Cells (BIIC) were generated according to Bac-to-Bac kit instructions (Life Technologies) and Wasilko, 2006, respectively. Protein over-expression was accomplished by infecting exponentially growing Spodoptera frugiperda (SF9) cell culture at 1.2×10^6 cell/ml with a 5000 fold dilution of BIIC stock. Infections were carried out at 27° C. for 72 hours, harvested by centrifugation, and stored at −80° C. for purification.
Flag-PRMT5/6His-MeP50 was eluted with 300 mM Imidazole in the same buffer. […] Reference: Wasilko, D. J. and S. E. Lee: “TIPS: titerless infected-cells preservation and scale-up” Bioprocess J., 5 (2006), pp. 29-32.
General Procedure for PRMT5/MEP50 Enzyme Assays on Peptide Substrates.
The assays were all performed in a buffer consisting of 20 mM Bicine (pH=7.6), 1 mM TCEP, 0.005% BSG, and 0.002% Tween20, prepared on the day of use. Compounds in 100% DMSO (1 ul) were spotted into a polypropylene 384-well V-bottom plates (Greiner) using a Platemate Plus outfitted with a 384-channel head (Thermo Scientific). DMSO (1 ul) was added to Columns 11, 12, 23, 24, rows A-H for the maximum signal control and 1 ul of SAH, a known product and inhibitor of PRMT5/MEP50, was added to columns 11, 12, 23, 24, rows I-P for the minimum signal control. A cocktail (40 ul) containing the PRMT5/MEP50 enzyme and the peptide was added by Multidrop Combi (Thermo-Fisher). The compounds were allowed to incubate with PRMT5/MEP50 for 30 min at 25 degrees Celsius, then a cocktail (10 ul) containing ^3H-SAM was added to initiate the reaction (final volume=51 ul). The final concentrations of the components were as follows: PRMT5/MEP50 was 4 nM, ^3H-SAM was 75 nM, peptide was 40 nM, SAH in the minimum signal control wells was 100 uM, and the DMSO concentration was 1%. The assays were stopped by the addition of non-radioactive SAM (10 ul) to a final concentration of 600 uM, which dilutes the ^3H-SAM to a level where its incorporation into the peptide substrate is no longer detectable. 50 ul of the reaction in the 384-well polypropylene plate was then transferred to a 384-well Flashplate and the biotinylated peptides were allowed to bind to the streptavidin surface for at least 1 hour before being washed three times with 0.1% Tween20 in a Biotek ELx405 plate washer. The plates were then read in a PerkinElmer TopCount plate reader to measure the quantity of ^3H-labeled peptide bound to the Flashplate surface, measured as disintegrations per minute (dpm) or alternatively, referred to as counts per minute (cpm).
[formula] Where dpm=disintegrations per minute, cmpd=signal in assay well, and min and max are the respective minimum and maximum signal controls.
[formula] Where top and bottom are the normally allowed to float, but may be fixed at 100 or 0 respectively in a 3-parameter fit.

Chain of PRMT5/MEP50 (O14744 other isoform, or with tags, fused parts or gaps): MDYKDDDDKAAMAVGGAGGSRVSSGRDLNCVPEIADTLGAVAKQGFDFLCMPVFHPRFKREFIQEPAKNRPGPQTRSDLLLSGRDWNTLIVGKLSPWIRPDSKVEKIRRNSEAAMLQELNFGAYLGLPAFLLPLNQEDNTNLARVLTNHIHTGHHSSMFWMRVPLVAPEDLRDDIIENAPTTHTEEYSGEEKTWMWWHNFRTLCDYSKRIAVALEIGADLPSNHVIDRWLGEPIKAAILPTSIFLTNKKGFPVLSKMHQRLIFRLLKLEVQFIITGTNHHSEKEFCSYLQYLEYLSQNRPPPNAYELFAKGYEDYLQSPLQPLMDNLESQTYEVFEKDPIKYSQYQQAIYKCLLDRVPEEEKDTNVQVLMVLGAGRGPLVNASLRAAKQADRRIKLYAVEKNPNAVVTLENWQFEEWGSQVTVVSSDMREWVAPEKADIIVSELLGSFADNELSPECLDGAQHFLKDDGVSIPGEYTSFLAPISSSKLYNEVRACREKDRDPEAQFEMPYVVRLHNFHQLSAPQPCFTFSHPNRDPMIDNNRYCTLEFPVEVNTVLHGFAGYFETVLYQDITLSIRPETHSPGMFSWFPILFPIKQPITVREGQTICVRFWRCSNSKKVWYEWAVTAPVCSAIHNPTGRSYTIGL
Chain of PRMT5/MEP50 (Q9BQA1 other isoform, or with tags, fused parts or gaps partner): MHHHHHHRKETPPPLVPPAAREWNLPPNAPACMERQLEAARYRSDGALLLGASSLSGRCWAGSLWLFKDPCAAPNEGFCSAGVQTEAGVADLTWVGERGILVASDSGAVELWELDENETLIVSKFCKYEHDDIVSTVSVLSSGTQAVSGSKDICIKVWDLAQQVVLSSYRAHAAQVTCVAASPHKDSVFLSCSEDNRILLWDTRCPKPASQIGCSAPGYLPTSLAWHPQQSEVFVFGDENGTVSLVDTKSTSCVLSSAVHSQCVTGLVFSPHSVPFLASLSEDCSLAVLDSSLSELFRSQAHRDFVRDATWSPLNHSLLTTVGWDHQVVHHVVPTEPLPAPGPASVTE

Row | Compound | IC50
1 | O=C(NCC(O)CN1CCc2ccccc2C1)c1cccc(N2CCS(=O)(=O)CC2)c1 (stereo not shown) [Compound 164] | < 100 nM
2 | NC(=O)CCCN1CCN(Cc2cccc(C(=O)NCC(O)CN3CCc4ccccc4C3)c2)CC1 (stereo not shown) [Compound 159] | < 100 nM
3 | O=C(NC[C@H](O)CN1CCc2ccccc2C1)c1csc2ccccc12 [Compound 248] | < 100 nM
4 | O=C(NC[C@H](O)CN1CCc2ccccc2C1)c1ccc(OC2CCN(Cc3ccncc3)CC2)cc1 [Compound 331] | < 100 nM
5 | CCN(c1cccc(C(=O)NCC(O)CN2CCc3ccccc3C2)c1C)C1CCOCC1 (stereo not shown) [Compound 41] | < 100 nM
6 | O=C(NCC(O)CN1CCc2ccccc2C1)c1cccc(-c2cc[nH]n2)c1 (stereo not shown) [Compound 10] | < 100 nM
7 | COc1ccc(C(=O)NCC(O)CN2CCc3ccccc3C2)cc1NC1CCOCC1 (stereo not shown) [Compound 67] | 101 to 1000 nM
8 | CN(C)CCCOc1ccc(C(=O)NCC(O)CN2CCc3ccccc3C2)cc1 (stereo not shown) [Compound 178] | < 100 nM
9 | CN(c1cc(C(=O)NC[C@H](O)CN2CCc3ccccc3C2)ccn1)C1CCC1 [Compound 333] | < 100 nM
10 | O=C(NC[C@@H](O)CN1CCc2ccccc2C1)Oc1ccccc1 [Compound 11, (R)-phenyl (3-(3,4-dihydroisoquinolin-2(1H)-yl)-2-hydroxypropyl)carbamate] | < 100 nM
11 | O=C(NC[C@H](O)CN1CCc2ccccc2C1)c1cncc(OC2CCNCC2)c1 [Compound 260] | < 100 nM
12 | Cn1nccc1C(=O)NCC(O)CN1CCc2ccccc2C1 (stereo not shown) [Compound 150] | 101 to 1000 nM
13 | O=C(NCC(O)CN1CCc2ccccc2C1)c1ccc2nccnc2c1 (stereo not shown) [Compound 85] | 101 to 1000 nM
14 | O=C(NCC(O)CN1CCc2ccccc2C1)c1ccc(OC2CCOCC2)cc1 (stereo not shown) [Compound 58, N-(3-(3,4-dihydroisoquinolin-2(1H)-yl)-2-hydroxypropyl)-4-((tetrahydro-2H-pyran-4-yl)oxy)benzamide] | < 100 nM
15 | O=C(NC[C@H](O)CN1CCc2ccccc2C1)c1cc(OC2CCOCC2)ncn1 [Compound 256] | < 100 nM
16 | O=C(NCC(O)CN1CCc2ccccc2C1)c1cccc(-n2cncn2)c1 (stereo not shown) [Compound 130] | < 100 nM
17 | CC(=O)N1CC[C@H](Nc2cccc(C(=O)NC[C@H](O)CN3CCc4ccccc4C3)c2)C1 [Compound 266] | < 100 nM
18 | O=C(NC[C@H](O)CN1CCc2ccccc2C1)c1ccc2c(c1)OCO2 [Compound 244] | < 100 nM
19 | O=C(NC[C@H](O)CN1CCc2ccccc2C1)c1ccnc(NC2CCNC2)c1 (stereo partly shown) [Compound 201] | < 100 nM
20 | O=C(NCC(O)CN1CCc2ccccc2C1)c1cccc(-c2ccccn2)c1 (stereo not shown) [Compound 1, N-(3-(3,4-dihydroisoquinolin-2(1H)-yl)-2-hydroxypropyl)-3-(pyridin-2-yl)benzamide] | < 100 nM
21 | CC(C)N1CCC(Nc2ccc(C(=O)NCC(O)CN3CCc4ccccc4C3)cc2)CC1 (stereo not shown) [Compound 140] | < 100 nM
22 | O=C(NCC(O)CN1CCc2ccccc2C1)c1cc(NC2CCOCC2)n[nH]1 (stereo not shown) [Compound 169] | < 100 nM
23 | O=C(NC[C@H](O)CN1CCc2ccccc2C1)c1ccnc(OC2CCOCC2)c1 [Compound 323] | < 100 nM
24 | Cn1nc(NC2CCOCC2)cc1C(=O)NCC(O)CN1CCc2ccccc2C1 (stereo not shown) [Compound 311] | < 100 nM
25 | COCCCNc1cccc(C(=O)NCC(O)CN2CCc3ccccc3C2)c1 (stereo not shown) [Compound 70] | 101 to 1000 nM
26 | CC(=O)N1CCC(Nc2cccc(C(=O)NCC(O)CN3CCc4ccccc4C3)c2)CC1 (stereo not shown) [Compound 124] | < 100 nM
27 | CC(=O)N1CCC(Nc2cc(C(=O)NC[C@H](O)CN3CCc4ccccc4C3)ccn2)C1 (stereo partly shown) [Compound 228] | < 100 nM
28 | CC(=O)N1CC(Nc2cc(C(=O)NC[C@H](O)CN3CCc4ccccc4C3)ccn2)C1 [Compound 279] | < 100 nM
29 | CS(=O)(=O)N1CCN(Cc2cccc(C(=O)NCC(O)CN3CCc4ccccc4C3)c2)CC1 (stereo not shown) [Compound 91] | < 100 nM

Further lines, results first:

Row | IC50 | Compound
30 | < 100 nM | CN1CCC(c2cccc(C(=O)NCC(O)CN3CCc4ccccc4C3)c2)C1 (stereo not shown) [Compound 38, N-(3-(3,4-dihydroisoquinolin-2(1H)-yl)-2-hydroxypropyl)-3-(1-methylpyrrolidin-3-yl)benzamide]
31 | < 100 nM | O=C(NC[C@H](O)CN1CCc2ccccc2C1)c1ccnc(NC2CCN(CC(F)(F)F)CC2)c1 [Compound 224]
32 | < 100 nM | CC(=O)N1CCC(Oc2cccc(C(=O)NCC(O)CN3CCc4ccccc4C3)c2)C1 (stereo not shown) [Compound 136]
33 | < 100 nM | CC(C)N1CCC(Oc2ccc(C(=O)NCC(O)CN3CCc4ccccc4C3)cc2)C1 (stereo not shown) [Compound 196]
34 | 101 to 1000 nM | COCCCNc1cccc(C(=O)NCC(O)CN2CCc3ccccc3C2)c1 (stereo not shown) [Compound 69]
35 | < 100 nM | O=C(NCC(O)CN1CCc2ccccc2C1)c1cc(NC2CCOCC2)ccn1 (stereo not shown) [Compound 55, N-(3-(3,4-dihydroisoquinolin-2(1H)-yl)-2-hydroxypropyl)-4-((tetrahydro-2H-pyran-4-yl)amino)picolinamide]
36 | < 100 nM | O=C(NC[C@H](O)CN1CCc2ccccc2C1)c1ccnc(NCC2CCCNC2)c1 (stereo partly shown) [Compound 236]
37 | < 100 nM | CN1CCC(Nc2cccc(C(=O)NC[C@H](O)CN3CCc4ccccc4C3)c2)CC1 [Compound 239]
38 | < 100 nM | CN(c1cc(C(=O)NC[C@H](O)CN2CCc3ccccc3C2)ncn1)C1CCOCC1 [Compound 261]
39 | < 100 nM | CN1CCC(Nc2cc(C(=O)NC[C@H](O)CN3CCc4ccccc4C3)ncn2)C1 (stereo partly shown) [Compound 181]
40 | < 100 nM | CN(C)CCOc1cc(C(=O)NC[C@H](O)CN2CCc3ccccc3C2)ccn1 [Compound 234]
41 | 101 to 1000 nM | O=C(NCC(O)CN1CCc2ccccc2C1)c1nccc(NC2CCOCC2)n1 (stereo not shown) [Compound 76]
42 | 101 to 1000 nM | Cc1cnc(OC2CCOCC2)cc1C(=O)NC[C@H](O)CN1CCc2ccccc2C1 [Compound 309]
43 | < 100 nM | O=C(NC[C@H](O)CN1CCc2ccccc2C1)c1ccnc(NC2CCCCC2)c1 [Compound 335]
44 | 101 to 1000 nM | CC1=NN(c2ccc(C(=O)NCC(O)CN3CCc4ccccc4C3)cc2)C(=O)C1 (stereo not shown) [Compound 86]
45 | < 100 nM | O=C(NC[C@@H](O)CN1CCc2ccccc2C1)c1ccnc(NC2CCOCC2)c1 [Compound 184]
46 | < 100 nM | CCOC(=O)CN1CCN(Cc2cccc(C(=O)NCC(O)CN3CCc4ccccc4C3)c2)CC1 (stereo not shown) [Compound 165]
47 | < 100 nM | CN(C[C@H](O)CN1CCc2ccccc2C1)C(=O)c1cccc(NC2CCOCC2)c1 [Compound 111]
48 | < 100 nM | CC(C)(C)c1cc(Nc2cc(C(=O)NC[C@H](O)CN3CCc4ccccc4C3)ccn2)n[nH]1 [Compound 326]
49 | < 100 nM | Cc1cnc(NC2CCOC2)cc1C(=O)NC[C@H](O)CN1CCc2ccccc2C1 (stereo partly shown) [Compound 308]
50 | < 100 nM | O=C(NCC(O)CN1CCc2ccccc2C1)c1cccc(N2CCNCC2)c1 (stereo not shown) [Compound 35, N-(3-(3,4-dihydroisoquinolin-2(1H)-yl)-2-hydroxypropyl)-3-(piperazin-1-yl)benzamide]
51 | < 100 nM | O=C(NCC(O)CN1CCc2ccccc2C1)c1cccc(CN2CCN(CCO)CC2)c1 (stereo not shown) [Compound 113]
52 | < 100 nM | CS(=O)(=O)N1CCC(Nc2cc(C(=O)NC[C@H](O)CN3CCc4ccccc4C3)ncn2)CC1 [Compound 297]
53 | 1000 to 10000 nM | O=C(NC[C@@H](O)CN1CCc2ccccc2C1)Nc1ccccc1 [Compound 6]
54 | < 100 nM | CS(=O)(=O)N1CC(Nc2cc(C(=O)NC[C@H](O)CN3CCc4ccccc4C3)ncn2)C1 [Compound 283]
55 | < 100 nM | CS(=O)(=O)N1CCC(Nc2cc(C(=O)NC[C@H](O)CN3CCc4ccccc4C3)ccn2)C1 (stereo partly shown) [Compound 227]
